Sander's compilation of Henry's law constants (doi:10.1016/j.atmosenv.2006.04.009)

Experiment: Henry solubility constant Hcp at 298.15 K (mol/(m3 Pa))
Conditions: reference: Cetin et al. (2006)

SMILES | Henry solubility constant Hcp
Clc1ccc(C(c2ccc(Cl)cc2)C(Cl)(Cl)Cl)cc1 [1,1,1-trichloro-2,2-bis-(4-chlorophenyl)-ethane] | 0.9
Clc1ccc(C(c2ccc(Cl)cc2)C(Cl)Cl)cc1 [1,1-dichloro-2,2-bis-(4-chlorophenyl)-ethane] | 0.91
ClC(Cl)=C(c1ccc(Cl)cc1)c1ccc(Cl)cc1 [1,1-dichloro-2,2-bis-(4-chlorophenyl)-ethene] | 0.16
ClC1=C(Cl)[C@]2(Cl)[C@H]3[C@H]([C@@H]4C=C[C@H]3C4)[C@@]1(Cl)C2(Cl)Cl [aldrin] | 0.022
CCOP(=S)(OCC)Oc1nc(Cl)c(Cl)cc1Cl [chlorpyrifos] | 0.22
ClC1=C(Cl)[C@]2(Cl)[C@@H]3[C@@H](Cl)[C@@H](Cl)C[C@@H]3[C@@]1(Cl)C2(Cl)Cl [cis-chlordane] | 0.15
ClC1=C(Cl)C2(Cl)[C@H]3C(Cl)C(Cl)C(Cl)[C@H]3C1(Cl)C2(Cl)Cl (stereo partly drawn) [cis-nonachlor] | 1.4
ClC1=C(Cl)[C@]2(Cl)[C@@H]3[C@@H]4C[C@@H]([C@H]5O[C@@H]45)[C@@H]3[C@@]1(Cl)C2(Cl)Cl [dieldrin] | 0.92
ClC1=C(Cl)[C@]2(Cl)[C@@H]3[C@H]4C[C@H]([C@@H]5O[C@H]45)[C@@H]3[C@@]1(Cl)C2(Cl)Cl [endrin] | 1.8
ClC1=C(Cl)C2(Cl)C3C(Cl)C=CC3C1(Cl)C2(Cl)Cl (stereo not given) [heptachlor] | 0.019
ClC1=C(Cl)C2(Cl)C3C4OC4C(Cl)C3C1(Cl)C2(Cl)Cl (stereo not given) [heptachlorepoxide] | 0.5
ClC1=C(Cl)[C@]2(Cl)[C@H]3[C@H](Cl)[C@@H](Cl)C[C@H]3[C@@]1(Cl)C2(Cl)Cl [trans-chlordane] | 0.063
ClC1=C(Cl)C2(Cl)C3C(Cl)C(Cl)C(Cl)C3C1(Cl)C2(Cl)Cl (stereo not drawn) [trans-nonachlor] | 0.088
ClC1C(Cl)C(Cl)C(Cl)C(Cl)C1Cl (stereo not drawn) [α-1,2,3,4,5,6-hexachlorocyclohexane] | 3
ClC1C(Cl)C(Cl)C(Cl)C(Cl)C1Cl (stereo not given) [γ-1,2,3,4,5,6-hexachlorocyclohexane] | 3.9
